From PMC7577125 (Antimicrobial Agents and Chemotherapy, 2020)
Like-named read-outs stand apart in the source and are kept apart here.

Experiments:
HBV genotype B = assay: microbe, parasite or virus in culture; type: cell-based; settings: Hepatitis B virus, read-out: Mean antiviral EC50
HBV [1] = assay: Dose response of ETV and ABI-H0731 alone and in combination in induced HepAD38 cells; type: cell-based, Hepatitis B virus; settings: 100× VR EC50 of ETV
Experimental: Viral replication was evaluated by quantifying the levels of total HBV DNA in the cells by qPCR. […] In both cases, the data are plotted as a function of each drug’s concentration relative to its VR EC50.

HBV Cp D29G = assay: microbe, parasite or virus in culture; type: cell-based, Hepatitis B virus; settings: Hepatitis B virus, Huh-7, read-out: Mean EC50
HBV [2] = assay: HBV infection of HepG2-NTCP cells; type: cell-based; settings: Hepatitis B virus
HBV cccDNA [3] = assay: cccDNA formation assay in infected HepG2-NTCP cells (Southern blot); type: cell-based; settings: Hepatitis B virus, 96 h, 1.00 μM, 4 days, read-out: cccDNA % of Control
[4] = tested on: HBV (genotype D, subtype ayw); assay: HBV replication assay in HepAD38 cells; type: cell-based, Hepatitis B virus
HBV [5] = assay: HBV infection of primary human hepatocytes (PHHs); type: cell-based; settings: Hepatitis B virus, Hepatocyte, PHH
HBV Cp I105L = assay: microbe, parasite or virus in culture; type: cell-based, Hepatitis B virus; settings: Hepatitis B virus, Huh-7, read-out: Mean EC50
[6] = tested on: NrtI^R HBV (rtL180M/M204V); assay: microbe, parasite or virus in culture; type: cell-based, Hepatitis B virus; settings: Hepatitis B virus
HBV capsid DNA [7] = assay: Incoming capsid assay in HepG2-NTCP cells; type: cell-based; settings: Hepatitis B virus, 1.00 μM, 3 h, read-out: Capsid DNA % of Control
HBV Cp I105T = assay: microbe, parasite or virus in culture; type: cell-based, Hepatitis B virus; settings: Hepatitis B virus, Huh-7, read-out: Mean EC50
HBV genotype A = assay: microbe, parasite or virus in culture; type: cell-based; settings: Hepatitis B virus, read-out: Mean antiviral EC50
HBV cccDNA [8] = assay: cccDNA formation assay in infected PHH cells (Southern blot); type: cell-based; settings: Hepatitis B virus, 96 h, 0.10 μM, 4 days, read-out: cccDNA % of Control
[9] = tested on: HBV genotypes A, B, C, and D; assay: microbe, parasite or virus in culture; type: cell-based; settings: Hepatitis B virus, read-out: VR EC50s
HBV Cp T109M = assay: microbe, parasite or virus in culture; type: cell-based, Hepatitis B virus; settings: Hepatitis B virus, Huh-7, read-out: Mean EC50
HBV Cp T109I = assay: microbe, parasite or virus in culture; type: cell-based, Hepatitis B virus; settings: Hepatitis B virus, Huh-7, read-out: Mean EC50
HBV Cp Wild type = assay: microbe, parasite or virus in culture; type: cell-based, Hepatitis B virus; settings: Hepatitis B virus, Huh-7, read-out: Mean EC50
HBV Cp T33N = assay: microbe, parasite or virus in culture; type: cell-based, Hepatitis B virus; settings: Hepatitis B virus, Huh-7, read-out: Mean EC50
HBV Cp P25A = assay: microbe, parasite or virus in culture; type: cell-based, Hepatitis B virus; settings: Hepatitis B virus, Huh-7, read-out: Mean EC50
HBV Cp Y38C = assay: microbe, parasite or virus in culture; type: cell-based, Hepatitis B virus; settings: Hepatitis B virus, Huh-7, read-out: Mean EC50
HBV [10] = assay: De novo infection models (HepG2-NTCP and PHH), summary; type: cell-based, Hepatitis B virus; settings: HepG2-NTCP and PHH cells, tested at up to 100 nM
HBV genotype D = assay: microbe, parasite or virus in culture; type: cell-based; settings: Hepatitis B virus, read-out: Mean antiviral EC50
HBV genotype C = assay: microbe, parasite or virus in culture; type: cell-based; settings: Hepatitis B virus, read-out: Mean antiviral EC50
HBV [11] = assay: Extracellular HBV DNA and pgRNA in HepAD38 cells (qPCR, RT-qPCR); type: cell-based, Hepatitis B virus
From the text: For HBV RNA Northern blot analysis, total cellular RNA or encapsidated pgRNA samples were resolved in a 1.5% agarose gel containing 2.2 M formaldehyde and transferred onto a Hybond-XL membrane (GE Healthcare). For DNA Southern blot analysis, HBV core DNA or cccDNA samples were resolved by electrophoresis in a 1.2% agarose gel and blotted onto a Hybond-XL membrane. Membranes were probed with either an [α-^32P]UTP (3,000 Ci/mmol; PerkinElmer)-labeled plus-strand-specific (for Northern blot hybridization) or minus-strand-specific (for Southern blot hybridization) HBV riboprobe and exposed to a phosphorimager screen. Extracellular HBV DNA and RNA were copurified from the culture medium of induced HepAD38 cells by using a MinElute virus vacuum kit (Qiagen). Viral DNA was quantified using the above-mentioned qPCR method directly, and HBV RNA was detected by RT-qPCR with the same core region primer/probe set after the removal of DNA contamination by DNase I (Thermo Fisher) treatment.

HBV Cp Y118F = assay: microbe, parasite or virus in culture; type: cell-based, Hepatitis B virus; settings: Hepatitis B virus, Huh-7, read-out: Mean EC50
HBV capsid DNA [12] = assay: Incoming capsid assay in PHH cells; type: cell-based; settings: Hepatitis B virus, 0.10 μM, 3 h, read-out: Capsid DNA % of Control
HBV Cp Y38F = assay: microbe, parasite or virus in culture; type: cell-based, Hepatitis B virus; settings: Hepatitis B virus, Huh-7, read-out: Mean EC50
[13] = total intracellular viral DNA, read-out: Mean EC50, viral DNA
[14] = HepAD38, concn ETV 0.01, ABI-H0731 2.0, GLS4 0.5, NVR 3-778 2.5, AT-130 0.8, VRD-32 0.8 μM

With C=C1[C@H](CO)[C@@H](O)C[C@@H]1n1cnc2c(=O)[nH]c(N)nc21 [ETV, entecavir] the EC50 (HBV genotype B) was 2.3 ± 0.5 nM, the “reduction of HBV DNA levels” value (HBV [1]) was roughly 1 log and the “HBV DNA levels” value (HBV [1]; control 2.2 × 10^6) was 1.3 × 10^5 copies/μl. For the same compound, the EC50 (HBV Cp D29G) was 0.6 ± 0.1 nM, the EC50 (HBV [2]; read-out: Mean EC50, HBeAg) was greater than 100 nM and the EC50 (HBV [2]; read-out: Mean EC50, HBsAg) was greater than 100 nM. The EC50 (HBV [2]; read-out: Mean EC50, pgRNA) was greater than 100 nM, the EC50 (HBV [2]; [13]) was 0.8 nM and the activity at 1 µM (HBV cccDNA [3]) was 85%. The EC50 ([4]; HepAD38, concomitantly determined with HepG2-NrtI^R, read-out: Mean EC50) was 0.58 ± 0.15 nM, the EC50 ([4]; Hepatitis B virus, HePAD38, HepAD38, concomitantly determined with HepG2-NrtI^R, read-out: Mean EC50) was 0.6 nM and the EC50 ([4]; Hepatitis B virus, HePAD38, HepAD38, total intracellular viral DNA, read-out: Mean EC50, viral DNA) was 1.2 ± 0.3 nM. For the same compound, the EC50 ([4]; Hepatitis B virus, HePAD38, comparison value of Figure S4 legend, read-out: EC50 against a wild-type strain) was 1 nM, the EC50 (HBV [5]; read-out: Mean EC50, HBeAg) was greater than 100 nM and the EC50 (HBV [5]; read-out: Mean EC50, HBsAg) was greater than 100 nM. For the same compound, the EC50 (HBV [5]; read-out: Mean EC50, pgRNA) was greater than 100 nM, the EC50 (HBV [5]; [13]) was less than 0.1 nM and the EC50 (HBV Cp I105L) was 0.4 ± 0.2 nM. It also gave an EC50 ([6]; 96 h, read-out: Mean EC50) of 7.1 ± 1.2 nM, an EC50 ([6]; 168 h, read-out: EC50 by Southern blot of intracellular viral core DNA) of roughly 10 nM and an activity at 1 µM (HBV capsid DNA [7]) of 90%. For the same compound, the EC50 (HBV Cp I105T) was 0.5 ± 0.3 nM, the EC50 (HBV genotype A) was 1.9 ± 0.5 nM and the activity at 0.1 µM (HBV cccDNA [8]) was 88%. For the same compound, the EC50 [9] was 1.2 to 5 nM, the EC50 (HBV Cp T109M) was 1.5 ± 0.3 nM and the EC50 (HBV Cp T109I) was 1.9 ± 0.6 nM. The EC50 (HBV Cp Wild type) was 1.9 ± 0.9 nM, the EC50 (HBV Cp T33N) was 3.5 ± 1.6 nM and the EC50 (HBV Cp P25A) was 2.9 ± 0.3 nM. For the same compound, the EC50 (HBV Cp Y38C) was 1.1 ± 0.5 nM, the “inhibition of viral antigen production” value (HBV [10]) was “weak and incomplete inhibition” and the EC50 (HBV genotype D) was 5 ± 1.9 nM. For the same compound, the EC50 (HBV genotype C) was 1.2 ± 0.1 nM, the “secreted HBV DNA levels reduced by” value (HBV [11]; HepAD38, ETV 0.01 μM) was 80% and the “Extracellular DNA content (% of DMSO control)” value (HBV [11]; [14]) was 19.5 % of DMSO control. The “Extracellular pgRNA content (% of DMSO control)” value (HBV [11]; [14]) was 170 % of DMSO control, the EC50 (HBV Cp Y118F) was 1.5 ± 0.9 nM and the activity at 0.1 µM (HBV capsid DNA [12]) was 86%. For the same compound, the EC50 (HBV Cp Y38F) was 4.6 ± 0.6 nM.
